Laboratory results as given in ChEMBL document CHEMBL5442175, “EUbOPEN Chemogenomics Library - PDSP Secondary Binding” (2024).
Counter-ions that a name gives are not always drawn.

Legend:
[1] = molecular target: T1, 5-hydroxytryptamine receptor 1A (Homo sapiens, UniProt P08908); experiment: (§1) PDSP Secondary Binding target: HTR1A - Compounds are tested at 10 uM concentration, plate are incubated at room temperature in the dark for 90 minutes. Reaction are stopped by vacuum filtration onto 0.3% polyethyleneimine soaked filter mats using Filtermate harvester. Scintillation cocktail is then melted onto microwave-dried filters on a hot plate and the radio activity is counted in Microbia counter.
T1 sequence (P08908 whole entry): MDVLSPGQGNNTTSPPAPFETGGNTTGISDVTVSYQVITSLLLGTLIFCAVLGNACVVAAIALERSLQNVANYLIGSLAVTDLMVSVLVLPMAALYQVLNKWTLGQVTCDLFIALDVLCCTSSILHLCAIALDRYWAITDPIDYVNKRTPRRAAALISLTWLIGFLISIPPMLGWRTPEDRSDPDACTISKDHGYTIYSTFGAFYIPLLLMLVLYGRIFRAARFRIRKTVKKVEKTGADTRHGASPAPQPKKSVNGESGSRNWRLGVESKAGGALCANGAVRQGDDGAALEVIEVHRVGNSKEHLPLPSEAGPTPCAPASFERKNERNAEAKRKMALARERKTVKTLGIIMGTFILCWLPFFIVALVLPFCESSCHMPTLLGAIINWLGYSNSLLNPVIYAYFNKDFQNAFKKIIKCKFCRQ

[2] = molecular target: 5-hydroxytryptamine receptor 1D (Homo sapiens, UniProt P28221); experiment: as §1, with “HTR1D” for “HTR1A”
5-hydroxytryptamine receptor 1D, sequence (P28221 whole entry): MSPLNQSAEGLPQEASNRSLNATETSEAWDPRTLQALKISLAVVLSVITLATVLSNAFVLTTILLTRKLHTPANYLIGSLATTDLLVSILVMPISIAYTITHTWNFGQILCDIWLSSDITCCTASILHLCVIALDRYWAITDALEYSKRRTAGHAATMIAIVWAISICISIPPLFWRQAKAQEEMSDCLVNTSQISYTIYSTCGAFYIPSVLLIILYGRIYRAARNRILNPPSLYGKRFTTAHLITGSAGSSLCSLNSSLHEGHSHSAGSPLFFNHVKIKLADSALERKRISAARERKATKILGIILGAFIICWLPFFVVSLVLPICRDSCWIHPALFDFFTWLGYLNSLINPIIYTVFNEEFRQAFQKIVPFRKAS

[3] = molecular target: 5-hydroxytryptamine receptor 5A (Homo sapiens, UniProt P47898); experiment: as §1, with “HTR5A” for “HTR1A”
5-hydroxytryptamine receptor 5A, sequence (P47898 whole entry): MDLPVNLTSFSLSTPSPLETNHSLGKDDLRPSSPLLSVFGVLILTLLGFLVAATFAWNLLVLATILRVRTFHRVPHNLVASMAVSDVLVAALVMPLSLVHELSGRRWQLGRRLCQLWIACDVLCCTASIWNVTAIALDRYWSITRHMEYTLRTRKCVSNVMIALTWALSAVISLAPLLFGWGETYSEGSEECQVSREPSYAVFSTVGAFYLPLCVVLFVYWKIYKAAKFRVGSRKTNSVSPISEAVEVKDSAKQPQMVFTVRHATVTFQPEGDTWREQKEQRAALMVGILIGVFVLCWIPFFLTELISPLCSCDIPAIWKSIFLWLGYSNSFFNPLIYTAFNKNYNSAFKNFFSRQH

[4] = molecular target: 5-hydroxytryptamine receptor 7 (Homo sapiens, UniProt P34969); experiment: as §1, with “HTR7” for “HTR1A”
[5] = molecular target: Sodium-dependent noradrenaline transporter (Homo sapiens, UniProt P23975); experiment: as §1, with “SLC6A2” for “HTR1A”
Sodium-dependent noradrenaline transporter, sequence (P23975 whole entry): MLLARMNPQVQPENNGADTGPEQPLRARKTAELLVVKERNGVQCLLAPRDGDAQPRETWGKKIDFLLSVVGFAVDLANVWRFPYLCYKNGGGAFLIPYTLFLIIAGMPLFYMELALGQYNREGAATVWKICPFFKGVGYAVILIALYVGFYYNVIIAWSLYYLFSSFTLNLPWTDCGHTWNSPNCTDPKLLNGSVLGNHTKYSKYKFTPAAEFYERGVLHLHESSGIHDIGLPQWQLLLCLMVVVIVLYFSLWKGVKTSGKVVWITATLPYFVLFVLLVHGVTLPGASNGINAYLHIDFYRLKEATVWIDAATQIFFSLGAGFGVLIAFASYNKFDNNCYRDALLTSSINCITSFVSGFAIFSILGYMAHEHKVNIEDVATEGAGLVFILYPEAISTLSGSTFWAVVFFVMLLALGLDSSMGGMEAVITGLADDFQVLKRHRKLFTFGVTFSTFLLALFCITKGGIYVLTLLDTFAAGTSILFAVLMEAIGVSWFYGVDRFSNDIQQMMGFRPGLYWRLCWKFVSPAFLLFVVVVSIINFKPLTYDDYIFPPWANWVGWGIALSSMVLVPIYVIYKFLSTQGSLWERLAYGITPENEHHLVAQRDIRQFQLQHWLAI

[6] = molecular target: Sigma intracellular receptor 2 (Homo sapiens, UniProt Q5BJF2); experiment: as §1, with “TMEM97” for “HTR1A”
Sigma intracellular receptor 2, sequence (Q5BJF2 whole entry): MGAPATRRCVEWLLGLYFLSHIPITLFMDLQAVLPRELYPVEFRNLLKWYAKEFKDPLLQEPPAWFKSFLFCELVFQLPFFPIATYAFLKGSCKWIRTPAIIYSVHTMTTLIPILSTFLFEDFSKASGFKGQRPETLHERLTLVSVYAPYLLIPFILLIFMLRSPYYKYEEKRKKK

[7] = molecular target: Kappa-type opioid receptor (Homo sapiens, UniProt P41145); experiment: as §1, with “OPRK1” for “HTR1A”
Kappa-type opioid receptor, sequence (P41145 whole entry): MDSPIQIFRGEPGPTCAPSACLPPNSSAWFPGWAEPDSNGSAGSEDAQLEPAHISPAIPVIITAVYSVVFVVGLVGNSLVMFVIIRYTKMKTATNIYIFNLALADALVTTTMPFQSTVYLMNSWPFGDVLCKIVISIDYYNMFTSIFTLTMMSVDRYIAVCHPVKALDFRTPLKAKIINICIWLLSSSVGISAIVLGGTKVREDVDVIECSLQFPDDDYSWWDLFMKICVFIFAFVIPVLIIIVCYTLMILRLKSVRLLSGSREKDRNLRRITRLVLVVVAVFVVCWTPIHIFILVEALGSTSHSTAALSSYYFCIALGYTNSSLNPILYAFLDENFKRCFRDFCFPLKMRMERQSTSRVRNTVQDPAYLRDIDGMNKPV

Mu-type opioid receptor = Mu-type opioid receptor (Homo sapiens, UniProt P35372); experiment: as §1, with “OPRM1” for “HTR1A”
Mu-type opioid receptor, sequence (P35372 whole entry): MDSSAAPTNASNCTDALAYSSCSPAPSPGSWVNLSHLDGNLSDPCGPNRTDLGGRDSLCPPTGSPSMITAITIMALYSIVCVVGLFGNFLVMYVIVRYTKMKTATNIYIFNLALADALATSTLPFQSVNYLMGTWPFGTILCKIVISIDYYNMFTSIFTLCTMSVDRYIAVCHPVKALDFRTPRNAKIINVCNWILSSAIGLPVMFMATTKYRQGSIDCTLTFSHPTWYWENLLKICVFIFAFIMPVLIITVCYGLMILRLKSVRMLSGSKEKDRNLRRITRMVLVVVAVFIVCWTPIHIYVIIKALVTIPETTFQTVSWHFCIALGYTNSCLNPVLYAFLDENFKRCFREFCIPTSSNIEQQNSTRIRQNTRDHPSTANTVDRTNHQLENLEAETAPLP

[8] = molecular target: 5-hydroxytryptamine receptor 2B (Homo sapiens, UniProt P41595); experiment: as §1, with “HTR2B” for “HTR1A”
5-hydroxytryptamine receptor 2B, sequence (P41595 whole entry): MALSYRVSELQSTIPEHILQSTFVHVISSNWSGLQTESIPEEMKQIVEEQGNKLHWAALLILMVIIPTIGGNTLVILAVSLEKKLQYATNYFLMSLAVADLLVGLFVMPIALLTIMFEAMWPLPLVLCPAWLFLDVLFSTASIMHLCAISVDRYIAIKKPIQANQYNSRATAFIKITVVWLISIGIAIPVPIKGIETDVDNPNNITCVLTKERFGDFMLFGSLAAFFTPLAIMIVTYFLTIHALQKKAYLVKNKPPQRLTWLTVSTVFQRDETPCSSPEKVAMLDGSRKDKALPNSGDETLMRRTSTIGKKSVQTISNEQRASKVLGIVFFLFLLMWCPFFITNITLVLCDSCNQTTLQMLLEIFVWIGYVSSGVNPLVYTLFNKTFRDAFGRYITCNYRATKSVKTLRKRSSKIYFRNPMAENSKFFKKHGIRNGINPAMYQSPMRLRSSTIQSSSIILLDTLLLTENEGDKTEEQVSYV

[9] = molecular target: T2, Alpha-1B adrenergic receptor (Homo sapiens, UniProt P35368); experiment: as §1, with “ADRA1B” for “HTR1A”
T2 sequence (P35368 whole entry): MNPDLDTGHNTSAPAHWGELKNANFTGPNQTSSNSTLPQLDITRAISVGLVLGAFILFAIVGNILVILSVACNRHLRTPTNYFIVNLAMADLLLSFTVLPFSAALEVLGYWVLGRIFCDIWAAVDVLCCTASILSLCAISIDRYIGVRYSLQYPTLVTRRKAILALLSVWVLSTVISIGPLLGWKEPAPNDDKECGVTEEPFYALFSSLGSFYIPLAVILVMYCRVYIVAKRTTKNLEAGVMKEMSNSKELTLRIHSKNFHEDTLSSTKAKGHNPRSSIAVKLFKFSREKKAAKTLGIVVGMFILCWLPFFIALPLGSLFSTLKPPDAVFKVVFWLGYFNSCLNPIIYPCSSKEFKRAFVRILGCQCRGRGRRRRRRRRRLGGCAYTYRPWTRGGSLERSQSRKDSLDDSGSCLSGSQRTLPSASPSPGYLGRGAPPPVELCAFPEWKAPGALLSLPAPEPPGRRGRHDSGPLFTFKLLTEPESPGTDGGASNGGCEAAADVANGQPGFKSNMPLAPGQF

[10] = molecular target: T3, Alpha-2C adrenergic receptor (Homo sapiens, UniProt P18825); experiment: as §1, with “ADRA2C” for “HTR1A”
T3 sequence (P18825 whole entry): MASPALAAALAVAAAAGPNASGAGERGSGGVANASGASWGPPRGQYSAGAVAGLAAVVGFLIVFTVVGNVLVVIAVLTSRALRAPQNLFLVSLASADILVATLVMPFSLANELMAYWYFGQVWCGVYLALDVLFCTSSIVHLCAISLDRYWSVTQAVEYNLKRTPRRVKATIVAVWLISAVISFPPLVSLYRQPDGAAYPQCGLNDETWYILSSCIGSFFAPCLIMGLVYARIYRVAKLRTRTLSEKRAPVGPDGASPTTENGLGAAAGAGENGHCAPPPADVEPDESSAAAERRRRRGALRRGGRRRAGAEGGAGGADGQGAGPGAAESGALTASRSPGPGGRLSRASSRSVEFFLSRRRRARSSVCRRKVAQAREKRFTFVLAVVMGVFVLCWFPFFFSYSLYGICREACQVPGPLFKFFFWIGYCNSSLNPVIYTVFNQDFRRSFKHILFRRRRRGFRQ

D(3) dopamine receptor = D(3) dopamine receptor (Homo sapiens, UniProt P35462); experiment: as §1, with “DRD3” for “HTR1A”
D(3) dopamine receptor, sequence (P35462 whole entry): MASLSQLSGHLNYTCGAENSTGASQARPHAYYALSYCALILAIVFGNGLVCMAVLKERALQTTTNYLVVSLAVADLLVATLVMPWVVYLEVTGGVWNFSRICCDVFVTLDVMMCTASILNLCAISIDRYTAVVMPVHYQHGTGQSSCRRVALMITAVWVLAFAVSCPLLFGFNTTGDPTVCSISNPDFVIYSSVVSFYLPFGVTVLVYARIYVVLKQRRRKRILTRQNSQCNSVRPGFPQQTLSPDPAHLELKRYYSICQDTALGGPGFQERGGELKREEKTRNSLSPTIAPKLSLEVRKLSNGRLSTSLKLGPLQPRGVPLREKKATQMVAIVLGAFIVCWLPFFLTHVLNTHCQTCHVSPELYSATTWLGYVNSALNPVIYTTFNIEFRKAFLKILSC

[11] = molecular target: T4, 5-hydroxytryptamine receptor 2C (Homo sapiens, UniProt P28335); experiment: as §1, with “HTR2C” for “HTR1A”
T4 sequence (P28335 whole entry): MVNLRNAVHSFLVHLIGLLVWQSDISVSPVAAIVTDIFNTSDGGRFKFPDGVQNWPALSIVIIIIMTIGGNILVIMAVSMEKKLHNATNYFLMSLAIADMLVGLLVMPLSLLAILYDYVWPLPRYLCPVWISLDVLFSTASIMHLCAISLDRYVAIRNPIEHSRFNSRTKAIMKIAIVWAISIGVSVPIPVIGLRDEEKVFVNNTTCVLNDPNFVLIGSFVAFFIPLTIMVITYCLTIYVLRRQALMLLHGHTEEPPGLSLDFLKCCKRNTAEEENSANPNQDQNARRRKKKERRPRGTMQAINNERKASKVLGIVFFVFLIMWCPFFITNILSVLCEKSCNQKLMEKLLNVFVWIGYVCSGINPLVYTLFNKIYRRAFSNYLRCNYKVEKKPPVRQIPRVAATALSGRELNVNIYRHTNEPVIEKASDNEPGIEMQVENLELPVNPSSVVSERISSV

[12] = molecular target: 5-hydroxytryptamine receptor 2A (Homo sapiens, UniProt P28223); experiment: as §1, with “HTR2A” for “HTR1A”
5-hydroxytryptamine receptor 2A, sequence (P28223 whole entry): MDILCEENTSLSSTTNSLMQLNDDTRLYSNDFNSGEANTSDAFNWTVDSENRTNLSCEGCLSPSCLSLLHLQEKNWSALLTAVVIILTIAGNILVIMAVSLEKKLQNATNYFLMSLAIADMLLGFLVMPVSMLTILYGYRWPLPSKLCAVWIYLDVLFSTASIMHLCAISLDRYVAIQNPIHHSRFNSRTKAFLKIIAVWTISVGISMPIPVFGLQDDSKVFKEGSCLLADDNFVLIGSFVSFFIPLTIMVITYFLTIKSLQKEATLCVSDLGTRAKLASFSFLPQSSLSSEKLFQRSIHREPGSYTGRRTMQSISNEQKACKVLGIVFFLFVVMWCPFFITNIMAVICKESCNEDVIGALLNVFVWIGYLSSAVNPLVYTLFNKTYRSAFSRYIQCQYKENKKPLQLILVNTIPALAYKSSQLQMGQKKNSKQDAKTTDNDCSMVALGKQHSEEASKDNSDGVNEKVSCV

[13] = molecular target: 5-hydroxytryptamine receptor 6 (Homo sapiens, UniProt P50406); experiment: as §1, with “HTR6” for “HTR1A”
5-hydroxytryptamine receptor 6, sequence (P50406 whole entry): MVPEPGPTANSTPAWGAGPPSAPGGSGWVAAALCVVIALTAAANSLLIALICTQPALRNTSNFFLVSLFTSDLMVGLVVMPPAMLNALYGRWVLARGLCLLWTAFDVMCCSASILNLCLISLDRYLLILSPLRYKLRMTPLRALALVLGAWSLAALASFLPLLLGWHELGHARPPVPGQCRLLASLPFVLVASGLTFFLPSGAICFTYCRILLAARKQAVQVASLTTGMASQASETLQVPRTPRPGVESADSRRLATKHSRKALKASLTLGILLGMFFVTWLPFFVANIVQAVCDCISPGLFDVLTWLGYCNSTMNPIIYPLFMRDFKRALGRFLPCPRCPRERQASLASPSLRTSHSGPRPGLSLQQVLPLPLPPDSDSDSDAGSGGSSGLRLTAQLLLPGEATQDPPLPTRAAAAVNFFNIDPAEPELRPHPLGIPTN

Histamine H2 receptor = Histamine H2 receptor (Homo sapiens, UniProt P25021); experiment: as §1, with “HRH2” for “HTR1A”
Histamine H2 receptor, sequence (P25021 whole entry): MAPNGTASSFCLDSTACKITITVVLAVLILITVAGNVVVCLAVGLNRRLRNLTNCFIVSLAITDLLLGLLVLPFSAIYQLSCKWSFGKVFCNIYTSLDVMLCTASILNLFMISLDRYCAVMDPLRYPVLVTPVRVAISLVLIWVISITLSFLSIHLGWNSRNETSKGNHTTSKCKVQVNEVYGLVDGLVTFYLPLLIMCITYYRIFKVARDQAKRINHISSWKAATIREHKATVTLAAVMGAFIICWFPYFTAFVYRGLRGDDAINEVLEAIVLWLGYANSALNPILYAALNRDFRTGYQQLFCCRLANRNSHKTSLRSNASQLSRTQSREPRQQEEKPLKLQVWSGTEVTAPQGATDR

[14] = molecular target: Sigma non-opioid intracellular receptor 1 (Homo sapiens, UniProt Q99720); experiment: as §1, with “SIGMAR1” for “HTR1A”
[15] = molecular target: Beta-3 adrenergic receptor (Homo sapiens, UniProt P13945); experiment: as §1, with “ADRB3” for “HTR1A”
[16] = molecular target: T5, Alpha-2B adrenergic receptor (Homo sapiens, UniProt P18089); experiment: as §1, with “ADRA2B” for “HTR1A”
T5 sequence (P18089 whole entry): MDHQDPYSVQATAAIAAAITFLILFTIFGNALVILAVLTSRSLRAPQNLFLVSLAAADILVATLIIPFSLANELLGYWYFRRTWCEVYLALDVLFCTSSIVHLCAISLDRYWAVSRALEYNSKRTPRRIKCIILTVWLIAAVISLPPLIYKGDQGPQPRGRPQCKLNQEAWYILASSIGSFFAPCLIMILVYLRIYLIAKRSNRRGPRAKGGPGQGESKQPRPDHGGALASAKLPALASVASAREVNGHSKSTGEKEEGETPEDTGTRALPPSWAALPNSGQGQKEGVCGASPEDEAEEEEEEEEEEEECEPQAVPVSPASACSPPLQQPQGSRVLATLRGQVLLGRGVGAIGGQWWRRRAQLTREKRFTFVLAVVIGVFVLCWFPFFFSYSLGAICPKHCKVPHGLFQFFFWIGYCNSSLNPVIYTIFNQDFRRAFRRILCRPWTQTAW

Histamine H1 receptor = Histamine H1 receptor (Homo sapiens, UniProt P35367); experiment: as §1, with “HRH1” for “HTR1A”
Histamine H1 receptor, sequence (P35367 whole entry): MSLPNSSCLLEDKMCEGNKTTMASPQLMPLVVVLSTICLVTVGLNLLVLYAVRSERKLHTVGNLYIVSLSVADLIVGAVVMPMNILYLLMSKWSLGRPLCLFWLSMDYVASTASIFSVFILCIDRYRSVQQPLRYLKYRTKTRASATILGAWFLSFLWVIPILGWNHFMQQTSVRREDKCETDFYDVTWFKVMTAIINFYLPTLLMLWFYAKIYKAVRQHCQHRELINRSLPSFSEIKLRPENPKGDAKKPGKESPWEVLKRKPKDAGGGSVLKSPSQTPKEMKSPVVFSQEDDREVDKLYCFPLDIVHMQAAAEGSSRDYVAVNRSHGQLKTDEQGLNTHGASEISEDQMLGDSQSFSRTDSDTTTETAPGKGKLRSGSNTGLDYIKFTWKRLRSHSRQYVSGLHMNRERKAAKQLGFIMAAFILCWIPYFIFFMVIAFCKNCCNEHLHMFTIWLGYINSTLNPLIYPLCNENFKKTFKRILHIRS

Compound | Ki [1] | Ki [2] | Ki [3] | Ki [4] | Ki [5] | Ki [6] | Ki [7] | Ki (Mu-type opioid receptor) | Ki [8] | Ki [9] | Ki [10] | Ki (D(3) dopamine receptor) | Ki [11] | Ki [12] | Ki [13] | Ki (Histamine H2 receptor) | Ki [14] | Ki [15] | Ki [16] | Ki (Histamine H1 receptor)
C[C@@H](NCCCc1cccc(C(F)(F)F)c1)c1cccc2ccccc12 [CINACALCET HYDROCHLORIDE] | 1960 nM | 1700 nM | 972 nM | 571 nM | 1450 nM | 388 nM | 444 nM | 1300 nM | 39.7 nM | 2890 nM | 1570 nM | 391 nM | 658 nM | 842 nM | 1820 nM | 2620 nM | – | – | – | –
COc1cccc([C@@H](C)NCCCc2ccccc2Cl)c1 [TECALCET HYDROCHLORIDE] | 1440 nM | – | 1090 nM | – | 1930 nM | 74.6 nM | 1400 nM | 2210 nM | 43 nM | – | 1580 nM | 875 nM | 162 nM | 181 nM | 2320 nM | 1400 nM | 41.5 nM | > 10000 nM | 955 nM | 909 nM
